# Activity calls are given as the source filed them. The rule behind the calls is not given here.
# Columns and labels:
# [1] = system: PC-3; experiment: Antitumor activity against human PC-3 cells xenografted in BALB/C mouse assessed as reduction in tumor volume at ip administrated daily for 21 consecutive days; format: functional, organism-based
# [2] = system: HL-60; experiment: Antiproliferative activity against human HL-60 cells assessed as inhibition of cell growth incubated for 72 hrs by MTT assay; format: functional, cell-based; conditions: HL-60, 72 h
# [3] = system: PC-3; experiment: Antitumor activity against human PC-3 cells xenografted in BALB/C mouse assessed as reduction in tumor weight at ip administrated daily for 21 consecutive days; format: functional, organism-based
# [4] = system: Myc-CaP; experiment: Antitumor activity against mouse Myc-CaP cells implanted in FVB mouse assessed as reduction in tumor volume at ip administrated daily for 14 consecutive days; format: functional, organism-based
# [5] = system: PC-3; experiment: Antiproliferative activity against human PC-3 cells assessed as inhibition of cell growth incubated for 72 hrs by MTT assay; format: functional, cell-based; conditions: PC-3, 72 h
# [6] = molecular target: c-Myc/c-Max (Homo sapiens) (UniProt P01106+P61244); experiment: Inhibition of MYC/MAX protein-protein interaction in human PC-3 cells at 10 uM incubated for 1 hr by Co-immunoprecipitation based immunoblotting analysis; format: cell-based
# c-Myc/c-Max (Homo sapiens), sequence (P01106 whole entry): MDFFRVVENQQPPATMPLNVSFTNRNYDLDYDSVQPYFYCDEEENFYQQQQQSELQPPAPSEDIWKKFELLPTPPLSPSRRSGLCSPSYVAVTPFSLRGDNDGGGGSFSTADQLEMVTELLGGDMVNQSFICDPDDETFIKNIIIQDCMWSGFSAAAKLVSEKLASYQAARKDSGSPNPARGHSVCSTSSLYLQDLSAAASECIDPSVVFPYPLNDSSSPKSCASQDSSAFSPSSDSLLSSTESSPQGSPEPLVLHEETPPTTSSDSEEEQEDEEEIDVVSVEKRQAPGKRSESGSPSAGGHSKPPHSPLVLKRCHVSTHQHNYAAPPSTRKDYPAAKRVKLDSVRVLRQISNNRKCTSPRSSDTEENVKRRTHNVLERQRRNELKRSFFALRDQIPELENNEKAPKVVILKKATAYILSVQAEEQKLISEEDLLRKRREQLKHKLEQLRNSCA
# c-Myc/c-Max (Homo sapiens), sequence (P61244 2-160 partner limits assumed): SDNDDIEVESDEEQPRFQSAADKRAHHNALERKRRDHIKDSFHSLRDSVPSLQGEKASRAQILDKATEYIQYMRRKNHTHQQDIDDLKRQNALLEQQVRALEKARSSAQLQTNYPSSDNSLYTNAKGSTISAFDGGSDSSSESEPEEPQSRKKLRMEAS
# [7] = molecular target: Myc proto-oncogene protein (Homo sapiens) (UniProt P01106); experiment: Inhibition of MYC in human PC-3 cells assessed as downregulation of MYC expression at 1 uM incubated for 24 hrs by Western blotting analysis relative to control; format: cell-based
# Myc proto-oncogene protein (Homo sapiens), sequence (P01106 whole entry): as the sequence (P01106 whole entry) above
# [8] = Toxicity in FVB mouse implanted with mouse Myc-CaP cells assessed as body weight loss at 10 to 50 mg/kg,ip administrated daily for 14 consecutive days; format: organism-based; conditions: in vivo, dose 10-50 mg/kg
# [9] = Toxicity in FVB mouse implanted with mouse Myc-CaP cells assessed as histopathological change in kidney at 10 to 50 mg/kg,ip administrated daily for 14 consecutive days by hematoxylin and eosin staining based microscopic analysis; format: organism-based; conditions: in vivo, dose 10-50 mg/kg
# [10] = Toxicity in BALB/C mouse xenografted with human PC-3 cells assessed as histopathological change in spleen at 50 to 100 mg/kg,ip administrated daily for 21 consecutive days by hematoxylin and eosin staining based microscopic analysis; format: organism-based; conditions: in vivo, dose 50-100 mg/kg
# [11] = Clearance in Sprague-Dawley rat at 10 mg/kg,ip administration by LC-MS/MS analysis; format: ADME, organism-based; conditions: in vivo
# [12] = system: PC-3; experiment: Antitumor activity against human PC-3 cells xenografted in BALB/C mouse assessed as tumor growth inhibition at 75 mg/kg,ip administrated daily for 21 consecutive days relative to control; format: functional; conditions: read-out: TGI
# [13] = Toxicity in BALB/C mouse xenografted with human PC-3 cells assessed as histopathological change in heart at 50 to 100 mg/kg,ip administrated daily for 21 consecutive days by hematoxylin and eosin staining based microscopic analysis; format: organism-based; conditions: in vivo, dose 50-100 mg/kg
# [14] = Toxicity in BALB/C mouse xenografted with human PC-3 cells assessed as histopathological change in liver at 50 to 100 mg/kg,ip administrated daily for 21 consecutive days by hematoxylin and eosin staining based microscopic analysis; format: organism-based; conditions: in vivo, dose 50-100 mg/kg
compound,measurement,setting,value
Oc1c(-c2cc(C(F)(F)F)n[nH]2)ccc(C#CCCN2CCOCC2)c1-c1ccc(Cl)c(C(F)(F)F)c1,Activity,[1],Dose-Dependent Effect
same,IC50,[2],1890 nM
same,Activity,[3],Dose-Dependent Effect
same,Activity,[4],Dose-Dependent Effect
same,IC50,[5],1270 nM
same,inhibition,[6],Active
same,inhibition,[7],> 50%
same,Activity,[8],Non-Toxic
same,Activity,[9],Non-Toxic
same,Activity,[10],Non-Toxic
same,CL/F,[11],74 mL/min/kg
same,inhibition in vivo at 75 mg/kg,[12],69%
same,Activity,[13],Non-Toxic
same,Activity,[14],Non-Toxic
